The values that follow come from patent US20180085416A1, “TRADITIONAL CHINESE MEDICINE COMPOSITION AND PREPARATION METHOD AND USE THEREOF” (INFINITUS (CHINA) COMPANY LTD., priority 2016, published 2018).

The test system of test [1] is excreted amount of phenol red in trachea of mice. Nature of the test: Expectorant effect in mice (phenol red excretion in trachea). In kind it is in vivo, Balb/c mice. The protocol:
80 Balb/c male mice (about 8 weeks old) were randomized into 8 groups based on body weight (10 mice/group). The groups were respectively blank control group and positive control group—ammonium chloride group (1 g/kg), high, medium and low dose groups of the traditional Chinese medicine composition produced by Comparative Example 1 (0.35, 1.05, 2.10 ml/kg), high, medium and low dose groups of the medicament produced by Example 1 (0.35, 1.05, 2.10 ml/kg). The blank control group was administered equal volume of deionized water. The administration volume was always 2.10 ml/kg. Gavage was performed for consecutive 30 days, once/day. 30 min before modeling, the positive control group was administered. […] A certain amount of phenol red was weighted with a balance, and 5% sodium bicarbonate solution was added to formulate 1 ml solution containing […] of phenol red, which was diluted sequentially to 1 mL solution containing 0.1, 0.3, 0.7, 1.0, 3.0, 5.0, 10.0 μg of phenol red was measured for absorbance. A standard curve was made by taking the dose of phenol red as abscissa, absorbance as ordinate. The amount of phenol red was calculated from the standard curve of phenol red according to the measured OD value. […]

The test system of test [2] is capsaicin induced rats' pharyngitis. In words: Effect on acute pharyngitis (capsaicin induced pharyngitis), EB dye exudation at pharyngeal mucosa. The settings on record: 1 mg/kg intragastric, 10 days before modeling. The class given is in vivo, SD rats.
Protocol: Experimental method: 90 male SD rats (˜8 weeks age) were randomized into 9 groups (10 rats/group). […] Animals from Comparative Example groups and Example of the present application groups were intragastrically administrated 30 days before modeling, once a day. Blank control group and model control group were administered equal volume of distilled water. […] The positive control group was administered at 1 mg/kg, and was intragastrically administrated 10 days before modeling. 24 hours after the last administration, the rats were anesthetized, injected with EB dye through the side tail vein. Ten minutes later, capsaicin was smeared to velopharyngeal tissue mucosa of rats, wherein each point was smeared for 3 times/5 seconds, with a total of 60 minutes. Blank control group was not subjected to stimulation.
After the end of the experiment, all rats were sacrificed by cervical dislocation, and were subjected to quantitative determination of EB dye exudation at pharyngeal mucosa respectively, in order to evaluate the improvement situation of pharyngeal mucosa inflammation of rats induced by capsaicin.
Test [3] has as its system carrageenan induced toe swelling of mice. Nature of the test: Acute inflammatory model: carrageenan-induced paw edema. The class given is in vivo, Balb/c mice. The following applies: 10 mg/kg, blank control = 100. The protocol:
90 Balb/c male mice (about 8 weeks old) were randomized into 9 groups based on body weight (10 mice/group). The groups were respectively blank control group, model group and positive control group—dexamethasone group, high, medium and low dose groups of the traditional Chinese medicine composition produced by Comparative Example 1 (0.35, 1.05, 2.10 ml/kg), high, medium and low dose groups of the medicament produced by Example 1 (0.35, 1.05, 2.10 ml/kg). Animals from Comparative Example group and Examples of the present application groups were intragastrically administrated 30 days before modeling, once a day. Blank control group and model control group were administered equal volume of distilled water. The administration volume was always 2.10 ml/kg. Dexamethasone group was administered at 10 mg/kg, and was intragastrically administrated 10 days before modeling. The model control group was intragastrically administrated equal volume of distilled water for consecutive 30 days, once a day. On day 30, 1 hour after the test samples were administered, a line was drawn using a marker pen along the external malleolus of right rear paw of rats as the marker. A toe volume measuring instrument was used to measure the volumes of right rear toes of each groups of rats (as the toe volume at 0 hour), and then the right rear toes of rats were subcutaneously injected 1% carrageenan (0.05 mL/rat). The thickness of rat paws at 1, 2, 4 hours were measured respectively. Each animal was measured for 3 times at the same site, and the results were averaged. The swelling value is defined as the difference between the toe volumes measured at different times and the toe volumes before the action of proinflammatory agent, which is used to calculate the toe volume swelling rates at each time period.
[Paw edema (mm)]=[footpad thickness of carrageenan (mm)−footpad thickness of PBS (mm)].
For orientation: The carrageenan paw model is a standard test of acute inflammation.

In a further test the test system is mouse tampon granuloma. Nature of the test: Chronic inflammatory model: cotton pellet (tampon) induced granuloma. In kind it is in vivo, Balb/c mice. The settings on record: mice, 10 mg/kg. The protocol:
80 Balb/c male mice (about 8 weeks old) were randomized into 8 groups based on body weight (10 mice/group). The groups were respectively model group and positive control group—dexamethasone group, high, medium and low dose groups of the traditional Chinese medicine composition produced by Comparative Example 1 (0.35, 1.05, 2.10 ml/kg), high, medium and low dose groups of the medicament produced by Example 1 (0.35, 1.05, 2.10 ml/kg). Animals from Comparative Example group and Examples of the present application groups were intragastrically administrated 30 days before modeling, once a day. Model control group was administered equal volume of deionized water. The administration volume was always 2.10 ml/kg. Dexamethasone group was administered at 10 mg/kg, and was intragastrically administrated 10 days before modeling. After the last administration, the mice were anesthetized by intraperitoneal injection of 3% pentobarbital sodium at a dose of 60 mg/kg body weight. After anesthesia, the animals were fixed in supine position, and the bilateral inguinal clothing hairs of the rats were removed with a hair removal device. After iodophor disinfection, the rats were subjected to skin incision for about 2 cm at both sides of the groin, and a sterilized tampon was implanted at both sides of the groin of the rats. […]

`Cl.N` [ammonium chloride]: the “excreted amount of phenol red, result in words” value in test [1] (compared with control group) is on record as “significantly (P<0.05) increase the excreted amount of phenol red”. In test [1] (mice, 1 g/kg, 30 min before modeling), the “excreted amount of phenol red” value stood at 7.92 ± 0.88 µg/mL.

As to `C[C@@H]1C[C@H]2[C@@H]3CCC4=CC(=O)C=C[C@]4(C)[C@@]3(F)[C@@H](O)C[C@]2(C)[C@@]1(O)C(=O)CO` [dexamethasone, Dexamethasone], the “exudated amount of evans blue (EB)” value in test [2] is 36.98 ± 2.74 µg/g. In addition, in test [3] (1 h), the “Swelling degrees of toes at different times after inflammation, 1 h” value is on record as 177.23. The “Swelling degrees of toes at different times after inflammation, 2 h” value in test [3] (2 h) came out at 164.17. In addition, in test [3] (4 h), the “Swelling degrees of toes at different times after inflammation, 4 h” value is listed as 157.17. Further, the “wet weight of granuloma” value with mouse tampon granuloma came out at 217.11. Moreover, the “Net weight of granuloma” value in the test on mouse tampon granuloma (dried weight minus original weight of tampon) was determined as 13.03 mg.
